Results reported in PubChem BioAssay AID248 (DTP/NCI, 2004).
Several values for one entry are separate records, joined by “and”; a condition that tells them apart may be missing. Equal entries are not always repeated. Inconclusive results and toxic doses are left out.

Tested on: L1210 leukemia ip in BDF1 mice, survival T/C
Experiment: NCI In Vivo Anticancer Drug Screen. Data for tumor model L1210 Leukemia (intraperitoneal) in B6D2F1 (BDF1) mice
Settings: endpoint: mean survival time, higher = longer survival
Outline: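 Tumor was transplanted into mice, which were then dosed with test compound or vehicle alone. Survival was recorded for each group, and the treated figure was expressed relative to the control figure.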

[1] = dose: 100.0 mg/kg/injection, schedule: Q01DX009 (ip), vehicle: saline with Tween-80
[2] = dose: 100.0 mg/kg/injection, schedule: Q01DX001 (ip), vehicle: saline
[3] = dose: 100.0 mg/kg/injection, schedule: Q04DX003 (ip), vehicle: saline
[4] = dose: 100.0 mg/kg/injection, schedule: Q04DX002 (ip), vehicle: Klucel (hydroxypropylcellulose) (HPC)
[5] = dose: 200.0 mg/kg/injection, schedule: Q04DX002 (ip), vehicle: Klucel (hydroxypropylcellulose) (HPC)
[6] = dose: 100.0 mg/kg/injection, schedule: Q01DX001 (ip), vehicle: saline with Tween-80
[7] = dose: 400.0 mg/kg/injection, schedule: Q01DX001 (ip), vehicle: saline with Tween-80
[8] = dose: 200.0 mg/kg/injection, schedule: Q01DX009 (ip), vehicle: saline with Tween-80
[9] = dose: 100.0 mg/kg/injection, schedule: Q04DX003 (ip), vehicle: saline with Tween-80
[10] = dose: 200.0 mg/kg/injection, schedule: Q04DX003 (ip), vehicle: saline with Tween-80
[11] = dose: 400.0 mg/kg/injection, schedule: Q04DX003 (ip), vehicle: saline with Tween-80

O=CC(O)C(O)C(OC1OC(CO)C(O)C(O)C1O)C(O)CO (stereo not given)
T/C (dose: 100.0 mg/kg/injection, schedule: Q04DX002 (ip), vehicle: carboxymethylcellulose (CMC)): 93 % of control and 117 % of control | T/C (dose: 100.0 mg/kg/injection, schedule: Q04DX003 (ip), vehicle: carboxymethylcellulose (CMC)): 99 % of control | T/C (dose: 200.0 mg/kg/injection, schedule: Q04DX002 (ip), vehicle: carboxymethylcellulose (CMC)): 93 % of control and 92 % of control | T/C (dose: 200.0 mg/kg/injection, schedule: Q04DX003 (ip), vehicle: carboxymethylcellulose (CMC)): 96 % of control | T/C (dose: 400.0 mg/kg/injection, schedule: Q04DX002 (ip), vehicle: carboxymethylcellulose (CMC)): 100 % of control and 86 % of control | T/C (dose: 400.0 mg/kg/injection, schedule: Q04DX003 (ip), vehicle: carboxymethylcellulose (CMC)): 87 % of control

N#CC(O)C1(O)CCCCC1 (stereo not given)
T/C (dose: 6.25 mg/kg/injection, schedule: Q04DX003 (ip), vehicle: saline sonified): 101 % of control | T/C (dose: 12.5 mg/kg/injection, schedule: Q04DX003 (ip), vehicle: saline sonified): 101 % of control | T/C (dose: 25.0 mg/kg/injection, schedule: Q04DX003 (ip), vehicle: saline sonified): 94 % of control

CCN(C(C)(C)C(SSSC(c1ccc(Cl)cc1)C(C)(C)N(CC)S(C)(=O)=O)c1ccc(Cl)cc1)S(C)(=O)=O (stereo not given)
T/C [1]: 91 % of control

C#CC[N+](CC)(CC)CC
T/C (dose: 25.0 mg/kg/injection, schedule: Q01DX001 (ip), vehicle: saline): 100 % of control | T/C (dose: 25.0 mg/kg/injection, schedule: Q01DX009 (ip), vehicle: saline): 106 % of control and 89 % of control | T/C (dose: 25.0 mg/kg/injection, schedule: Q04DX002 (ip), vehicle: saline): 95 % of control and 97 % of control | T/C (dose: 25.0 mg/kg/injection, schedule: Q04DX003 (ip), vehicle: saline): 99 % of control | T/C (dose: 50.0 mg/kg/injection, schedule: Q01DX001 (ip), vehicle: saline): 100 % of control | T/C (dose: 50.0 mg/kg/injection, schedule: Q01DX009 (ip), vehicle: saline): 98 % of control and 106 % of control | T/C (dose: 50.0 mg/kg/injection, schedule: Q04DX002 (ip), vehicle: saline): 107 % of control and 122 % of control | T/C (dose: 50.0 mg/kg/injection, schedule: Q04DX003 (ip), vehicle: saline): 102 % of control | T/C [2]: 105 % of control and 110 % of control | T/C [3]: 103 % of control

Cc1cc(C)c(NC(=O)c2ccc(Cl)cc2Cl)c(C)c1
T/C [4]: 95 % of control | T/C [5]: 106 % of control | T/C (dose: 400.0 mg/kg/injection, schedule: Q04DX002 (ip), vehicle: Klucel (hydroxypropylcellulose) (HPC)): 95 % of control

OC(c1ccccc1)c1ccncc1 (stereo not given)
T/C [6]: 103 % of control | T/C (dose: 200.0 mg/kg/injection, schedule: Q01DX001 (ip), vehicle: saline with Tween-80): 97 % of control | T/C [7]: 103 % of control

CN(C)CCCn1c2nc(=O)[nH]c(=O)c-2nc2cc(Cl)c(Cl)cc21
T/C (dose: 4.0 mg/kg/injection, schedule: Q01DX Z (ip), vehicle: methylcellulose (MC)): 117 % of control

CCCCCc1c2c(c(CCCCC)c3c1-c1cccc4cccc-3c14)-c1ccc(C)cc1C2
T/C [6]: 92 % of control | T/C [7]: 87 % of control

Cc1ccc(S(=O)(=O)NCN2C(=O)c3ccccc3C2=O)cc1
T/C (dose: 100.0 mg/kg/injection, schedule: Q01DX001 (ip), vehicle: acetone): 98 % of control | T/C [1]: 93 % of control | T/C [3]: 94 % of control | T/C (dose: 200.0 mg/kg/injection, schedule: Q01DX001 (ip), vehicle: acetone): 93 % of control | T/C [8]: 98 % of control | T/C (dose: 200.0 mg/kg/injection, schedule: Q04DX003 (ip), vehicle: saline): 97 % of control | T/C (dose: 400.0 mg/kg/injection, schedule: Q01DX001 (ip), vehicle: acetone): 95 % of control | T/C (dose: 400.0 mg/kg/injection, schedule: Q01DX009 (ip), vehicle: saline with Tween-80): 97 % of control | T/C (dose: 400.0 mg/kg/injection, schedule: Q04DX003 (ip), vehicle: saline): 99 % of control

COc1cccc2c1C(=O)c1c(O)c3c(c(O)c1C2=O)C[C@@](O)(/C(C)=N/N1CCCCC1)C[C@@H]3OC1CC(N)C(O)C(C)O1 (stereo not given in full)
T/C (dose: 0.12 mg/kg/injection, schedule: Q01DX009 (ip), vehicle: water): 114 % of control | T/C (dose: 0.25 mg/kg/injection, schedule: Q01DX009 (ip), vehicle: water): 113 % of control | T/C (dose: 0.25 mg/kg/injection, schedule: Q04DX003 (ip), vehicle: water): 110 % of control | T/C (dose: 0.5 mg/kg/injection, schedule: Q01DX009 (ip), vehicle: water): 117 % of control | T/C (dose: 0.5 mg/kg/injection, schedule: Q04DX003 (ip), vehicle: water): 118 % of control | T/C (dose: 1.0 mg/kg/injection, schedule: Q04DX003 (ip), vehicle: water): 116 % of control | T/C (dose: 2.0 mg/kg/injection, schedule: Q01DX009 (ip), vehicle: water): 119 % of control | T/C (dose: 3.12 mg/kg/injection, schedule: Q01DX009 (ip), vehicle: saline with Tween-80): 150 % of control | T/C (dose: 4.0 mg/kg/injection, schedule: Q01DX009 (ip), vehicle: water): 114 % of control and 88 % of control | T/C (dose: 6.25 mg/kg/injection, schedule: Q01DX009 (ip), vehicle: saline with Tween-80): 123 % of control | T/C (dose: 16.0 mg/kg/injection, schedule: Q04DX003 (ip), vehicle: water): 86 % of control

CC(=O)Nc1ccc(SC(Sc2ccc(NC(C)=O)cc2)c2ccccc2)cc1
T/C [2]: 92 % of control | T/C (dose: 200.0 mg/kg/injection, schedule: Q01DX001 (ip), vehicle: saline): 92 % of control | T/C (dose: 400.0 mg/kg/injection, schedule: Q01DX001 (ip), vehicle: saline): 92 % of control

COC(=O)C1(C)CCCC2(C)C3CCC4(C)CC3(CCC12)OC4C (stereo not given)
T/C (dose: 100.0 mg/kg/injection, schedule: Q04DX002 (ip), vehicle: saline with Tween-80): 95 % of control | T/C (dose: 200.0 mg/kg/injection, schedule: Q04DX002 (ip), vehicle: saline with Tween-80): 100 % of control | T/C (dose: 400.0 mg/kg/injection, schedule: Q04DX002 (ip), vehicle: saline with Tween-80): 89 % of control

CC(=O)Nc1ccc(/C=N/NC(=O)CNC(=O)NCc2ccccc2)cc1
T/C (dose: 50.0 mg/kg/injection, schedule: Q01DX009 (ip), vehicle: saline with Tween-80): 95 % of control | T/C [1]: 89 % of control | T/C [8]: 89 % of control

O=Cc1[nH]c(=S)[nH]c(=O)c1Cc1ccc([N+](=O)[O-])cc1
T/C [9]: 93 % of control | T/C [10]: 92 % of control | T/C [11]: 100 % of control

COC1OCC(NC(C)=O)C(OC(C)=O)C1OC(C)=O (stereo not given)
T/C (dose: 50.0 mg/kg/injection, schedule: Q01DX001 (sc), vehicle: saline): 104 % of control | T/C (dose: 100.0 mg/kg/injection, schedule: Q01DX001 (sc), vehicle: saline): 101 % of control | T/C (dose: 200.0 mg/kg/injection, schedule: Q01DX001 (sc), vehicle: saline): 111 % of control | T/C (dose: 400.0 mg/kg/injection, schedule: Q01DX001 (sc), vehicle: saline): 95 % of control

N#CC12C(=O)C3C4C=CC(C4)C3C(=O)C1(C#N)C1C=CC2C1 (stereo not given)
T/C [9]: 94 % of control | T/C [10]: 92 % of control

CC(=O)Nc1ccc(S(=O)(=O)Nc2cc(C)c(C)cc2C)cc1
T/C [4]: 103 % of control | T/C [5]: 91 % of control

O=S(=O)(OCC#CCOS(=O)(=O)c1ccc(Cl)c(Cl)c1)c1ccc(Cl)c(Cl)c1
T/C (dose: 12.5 mg/kg/injection, schedule: Q01DX009 (ip), vehicle: saline with Tween-80): 90 % of control | T/C (dose: 25.0 mg/kg/injection, schedule: Q01DX009 (ip), vehicle: saline with Tween-80): 90 % of control

CC(C)(C)CC(C)(C)c1ccc(OCCOc2ccc(C(=O)Nc3ccc(NC(=O)c4ccc5ccccc5c4O)cc3)cc2)cc1
T/C [9]: 105 % of control | T/C [10]: 90 % of control | T/C [11]: 90 % of control

CCCC(OP(=S)(OCC(Cl)CC)OCC(Cl)CC)P(=O)(OCC(Cl)CC)OCC(Cl)CC (stereo not given)
T/C (dose: 100.0 mg/kg/injection, schedule: Q04DX002 (ip), vehicle: saline): 106 % of control | T/C (dose: 200.0 mg/kg/injection, schedule: Q04DX002 (ip), vehicle: saline): 106 % of control | T/C (dose: 400.0 mg/kg/injection, schedule: Q04DX002 (ip), vehicle: saline): 106 % of control

C=CCOc1cc2c(ccc1=O)-c1c(cc(OC)c(OC)c1OC)CCC2NC(C)=O (stereo not given)
T/C (dose: 100.0 mg/kg/injection, schedule: Q01DX001 (ip), vehicle: carboxymethylcellulose (CMC)): 104 % of control | T/C (dose: 200.0 mg/kg/injection, schedule: Q01DX001 (ip), vehicle: carboxymethylcellulose (CMC)): 106 % of control | T/C (dose: 400.0 mg/kg/injection, schedule: Q01DX001 (ip), vehicle: carboxymethylcellulose (CMC)): 104 % of control
